Laboratory results taken from publication PMC4104029, “Mechanism of Action of Compound-13: An α1-Selective Small Molecule Activator of AMPK” (Chemistry & Biology, 2014).

Tested on: AMP deaminase-1
Test: AMPD1 assay
Assay type: biochemical, chicken
Settings: concentrations up to 100 μM; data not shown
Description: Supplemental Experimental Procedures:
Materials. Compounds 2 and 13 were synthesised by PeakDale Molecular and Natalia Shpiro (MRC-PPU, Dundee), respectively, as described previously (Gomez-Galeno, et al., 2010).
A769662 was from Selleck Chemicals and AICAR from Toronto Research Chemicals. Mouse FBP1, PYGM and PFK1 (muscle isoform) were cloned, expressed and purified from E.coli using standard techniques. AMPD was purified from chicken muscle (Smiley, et al., 1967).
PP2Cα expressed in E.coli was from the Division of Signal Transduction Therapy (DSTT, Dundee). Peptides were synthesised by GL Biochem (Shanghai). [γ-32P]-ATP, [1-14C]-acetic acid and [9,10-3H(N)]-palmitic acid were from PerkinElmer. pS79 ACC1 (#3661), ACC1 […]
antibodies were purchased from Cell Signaling Technology. Anti-AMPKα1 (07-350) and AMPKα2 (07-363) used for immunoblotting were from Merck-Millipore. Anti-AMPKγ1 was from Origene (clone Y308). Anti-AMPKγ2 was from Epitomics (S1562). Anti-tubulin (B-5-1-2), anti-FLAG (F7425) and anti-FLAG M2 agarose were from Sigma. Anti-HA (HA.11) was from Covance Research Products. AMPKα1/2 antibodies used for immunoprecipitation kinase assays were described previously (Sakamoto, et al., 2006). […]
AMPK preparations. […] Isolated human AMPKα subunits were expressed as N-terminal GST-fusions in E.coli and activated as described for heterotrimeric complexes. […]

O=P(O)(O)c1ccc(-c2cc(O)on2)o1 [Compound C2, 5-(5-hydroxyl-isoxazol-3-yl)-furan-2-phosphonic acid]
effect on enzyme activity: None of these enzymes were affected
